# Test results taken from publication PMC10222686, “Synthesis and Molecular Docking Studies of Alkoxy- and Imidazole-Substituted Xanthones as α-Amylase and α-Glucosidase Inhibitors” (Molecules, 2023).
# Legend:
# α-Glucosidase [1] = settings: Figure 1; reference not given; cited from earlier work
# α-glucosidase [2] = assay: α-Glucosidase inhibition assay (p-NPG substrate); format: biochemical, Saccharomyces cerevisiae; settings: mean ± SD, n = 4
# Procedure: The inhibitory activity of the compounds on α-glucosidase inhibition was quantified according to the method described by Salehi et al., with slight modifications [64]. A reaction was prepared by mixing 20 µL α-glucosidase solution (0.5 unit/mL), 120 µL 0.1 M phosphate buffer (pH 6.9), and 10 µL of the samples at concentrations from 400 µM to 4.0 µM. The solution was incubated in a 96-well microplate at 37 °C for 15 min. The enzymatic reaction was initiated by adding 20 µL of 5 mM p-NPG solution to 0.1 M phosphate buffer (pH 6.9), followed by incubation at 37 °C for 15 min. The reaction was stopped by adding 80 µL of 0.2 M sodium carbonate solution, and absorbance was read at 405 nm in a microplate reader (Epoch®, BioTek Instrument, Winooski, EUA). The reaction system without any test compounds was used as control, whereas the system without α-glucosidase served as blank for correcting background absorbance. The rate of α-glucosidase inhibition exerted by each sample was calculated with Equation (1):(1) % inhibition=Control absorbance−sample absorbance/Control absorbance×100
# (§2) All measurements were performed in quadruplicate and the values are expressed as the mean ± standard deviation.
# α-amylase [3] = biological target: T1, α-amylase (Sus scrofa, UniProt P00690); assay: α-Amylase inhibition assay (starch/DNS); format: biochemical, porcine; settings: mean ± SD, n = 4; for inhibition at 100 µM: NI = no inhibition; for IC50: compounds precipitate at 200 µM;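 as to all read-outs here: reducing sugar measured by DNS colour at 540 nm, inhibition relative to enzyme reaction lacking test compound, blank without enzyme subtracted for background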
# T1 construct: purchased Sigma-Aldrich; host or cells: porcine pancreas
# T1 sequence (P00690 16-511): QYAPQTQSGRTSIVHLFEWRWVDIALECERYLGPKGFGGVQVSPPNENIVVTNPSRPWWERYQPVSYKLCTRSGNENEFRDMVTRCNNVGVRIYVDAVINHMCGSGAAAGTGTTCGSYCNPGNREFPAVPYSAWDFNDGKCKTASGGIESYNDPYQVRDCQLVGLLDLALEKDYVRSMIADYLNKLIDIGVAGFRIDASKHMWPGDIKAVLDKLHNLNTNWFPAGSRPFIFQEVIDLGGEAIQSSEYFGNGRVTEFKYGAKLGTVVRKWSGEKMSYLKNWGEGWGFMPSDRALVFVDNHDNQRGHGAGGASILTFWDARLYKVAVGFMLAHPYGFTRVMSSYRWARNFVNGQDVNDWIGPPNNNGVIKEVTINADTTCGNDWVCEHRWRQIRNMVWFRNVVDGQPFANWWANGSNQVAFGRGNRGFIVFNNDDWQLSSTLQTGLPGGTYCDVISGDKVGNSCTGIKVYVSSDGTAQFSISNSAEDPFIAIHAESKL
# Procedure: α-Amylase inhibitory activity was quantified according to the method developed by Chokki et al., with some modifications [65]. […] Finally, 100 µL of 3,5-dinitrosalicylic acid (DNS) was added and heated at 100 °C for 20 min, and absorbance was then read at 540 nm in a microplate reader (Epoch, BioTek®). The reaction system without any test compound was used as the control, and the system without α-amylase served as a blank for correcting background absorbance. The percentage of α-amylase inhibition was calculated for each sample with Equation (2):(2) % inhibition=Control absorbance−sample absorbance/Control absorbance×100
# as §2
# α-glucosidase [4] = assay: Enzymatic kinetic study on α-glucosidase (Lineweaver–Burk); format: biochemical, Saccharomyces cerevisiae; settings: for Type of inhibition of α-glucosidase: Lineweaver–Burk plots; for Ki: p-NPG 0.5–5.0 mM, nonlinear regression
# Procedure: The X-axis values represent the reciprocal for the α-glucosidase substrate, p-nitrophenyl-α-D-glucopyranoside (p-NPG), while for the α-amylase substrate they represent starch, thus being 1/(starch). The Y-axis values are the reciprocal of the reaction velocity (Vo), thus being 1/Vo.
# (§1) To explore the type of enzyme inhibition, kinetic studies were carried out with α-glucosidase and α-amylase using a methodology such as that described in the inhibitory activity assays. The alkoxy-substituted xanthones were evaluated at four different concentrations according to their IC50. Various concentrations of substrates were used for each of the enzymes in the range of 0.5–5.0 mM for p-NPG in α-glucosidase and 0.1–1.0% for α-amylase. The type of inhibition for each test compound was determined by utilizing double reciprocal plots. Inhibition constants (KI) were calculated from substrate versus reaction rate curves using nonlinear regression of the enzyme inhibition kinetic function.
# α-amylase [5] = biological target: T1, α-amylase; assay: Enzymatic kinetic study on α-amylase (Lineweaver–Burk); format: biochemical, porcine; settings: for Type of inhibition of α-amylase: Lineweaver–Burk plots; for Ki: starch 0.1–1.0%, nonlinear regression
# Procedure: These KI values indicate that 6c has greater affinity for the enzyme.
# as §1
# [6] = DPPH radical scavenging assay; settings: mean ± SD, n = 4
# Procedure: The scavenging of free radicals by the synthesized compounds was assessed based on the previously reported DPPH radical assay, with slight modifications. The reaction mixture consisted of 50 µL of compound in DMSO at various concentrations (from 2.5 mM to 0.2 mM) and 150 µL of DPPH solution at 133.33 µM in absolute ethanol. The reaction components were added at a ratio of 1:3 (v/v). The mixture was incubated at 37 °C for 30 min before absorbance was read at 517 nm using a microplate reader (Epoch, BioTek®). Butylhydroxytoulene (BHT) served as the positive control. Scavenging capacity (%) is expressed as the percentage decrease in DPPH. SC% = [(Acontrol − Atest)/Acontrol] × 100 where Acontrol is absorbance of the DPPH solution (control) and Atest is the absorbance of the solution of DPPH and one of the compounds.
α-Glucosidase Inhibition (%) at 400 µM (α-glucosidase [2]) [%],IC50 (α-glucosidase [2]) [µM],inhibition at 100 µM (α-amylase [3]) [%],IC50 (α-amylase [3]) [µM],melting point [°C],Compound,IC50 (α-Glucosidase [1]) [µM],Type of inhibition of α-glucosidase (α-glucosidase [4]),Ki (α-glucosidase [4]) [µM],Type of inhibition of α-amylase (α-amylase [5]),Ki (α-amylase [5]) [µM],% DPPH Scavenging Activity (2.5 mM) [6]
,,,,,Clc1ccc(-c2nc(-c3ccccc3)n3c2-c2[nH]c4ccccc4c2CC3)cc1 [Carbazole-imidazole],81,,,,,
92.6 ± 0.11,16 ± 0.03,64.8 ± 0.15,76.7 ± 0.03,175 to 176,"COc1cc2oc3ccccc3c(=O)c2cc1OCC(=O)c1ccc(Cl)cc1 [Compound 6c, 2-(2-(4-Chlorophenyl)-2-oxoethoxy)-3-methoxy-9H-xanthen-9-one]",,mixed mode,21.5,competitive type of inhibitor,63.2,8.7 ± 0.67 ^G %
52.2 ± 0.87,400.2 ± 0.24,1.5 ± 0.1,> 200,187 to 189,"C=CCc1c(OCC(O)Cn2ccnc2)c(OC)cc2oc3ccccc3c(=O)c12 (stereo not drawn) [Compound 12d, 1-Allyl-2-(2-hydroxy-3-(1H-imidazol-1-yl)propoxy)-3-methoxy-9H-xanthen-9-one]",,,,,,10.1 ± 0.87 ^G %
96.6 ± 1.45,104.9 ± 0.01,2.4 ± 0.15,> 200,187 to 189,"C=CCc1c(OCC(O)Cn2ccnc2-c2ccccc2)c(OC)cc2oc3ccccc3c(=O)c12 (stereo not drawn) [Compound 12e, 1-Allyl-2-(2-hydroxy-3-(2-phenyl-1H-imidazol-1-yl)propoxy)-3-methoxy-9H-xanthen-9-one]",,,,,,17.6 ± 1.14 ^D %
99.1 ± 1.31,71.9 ± 0.08,4.7 ± 0.32,> 200,116 to 118,"C=CCc1c(OCC(O)Cn2ccnc2-c2ccc(Cl)cc2)c(OC)cc2oc3ccccc3c(=O)c12 (stereo not drawn) [Compound 12f, 1-Allyl-2-(3-(2-(4-chlorophenyl)-1H-imidazol-1-yl)-2-hydroxypropoxy)-3-methoxy-9H-xanthen-9-one]",,,,,,18.1 ± 1.57 ^D %
,,,,,O=c1c2c(O)cc(O)cc2oc2cc(O)c(-c3c(O)ccc4ccc(O)cc34)c(O)c12 [Dihydroxynaphtalenyl-xanthone],47.6,,,,,
,,,,,Cc1cc(C)n(-c2ccc(-n3c(-c4ccccc4)nc(-c4ccccc4)c3-c3ccccc3)cc2)n1 [Imidazole-pyrazole],105,,,,,
,,,,,"COc1c(O)cc2oc3cc(O)c(CC=C(C)C)c(O)c3c(=O)c2c1CC=C(C)C [α-Mangostin, α-mangostin]",5,,,,,

Compound,α-Glucosidase Inhibition (%) at 400 µM (α-glucosidase [2]) [%],IC50 (α-glucosidase [2]) [µM],inhibition at 100 µM (α-amylase [3]) [%],IC50 (α-amylase [3]) [µM],melting point [°C],IC50 (α-Glucosidase [1]) [µM],Type of inhibition of α-glucosidase (α-glucosidase [4]),Ki (α-glucosidase [4]) [µM],Type of inhibition of α-amylase (α-amylase [5]),Ki (α-amylase [5]) [µM],% DPPH Scavenging Activity (2.5 mM) [6]
"C=CCc1c(OCCCCBr)c(OC)cc2oc3ccccc3c(=O)c12 [Compound 9b, 1-Allyl-2-(4-bromobutoxy)-3-methoxy-9H-xanthen-9-one]",96.3 ± 0.2,4 ± 0.007,3.87 ± 0.11,> 200,,,mixed mode,1.25,,,17.6 ± 1.17 ^D %
"COc1cc2oc3ccccc3c(=O)c2cc1OCCCCn1ccnc1-c1ccc(Cl)cc1 [Compound 10c, 2-(4-(2-(4-Chlorophenyl)-1H-imidazol-1-yl)butoxy)-3-methoxy-9H-xanthen-9-one]",95.1 ± 0.15,232.7 ± 0.11,99.5 ± 0.1,5.4 ± 0.07,,,mixed mode,139,mixed-type inhibitor,2.2,"11.6 ± 1.54 ^F,G %"
